In patent publication US7674823B2, “DNA-PK inhibitors” (Cancer Research Technology Limited, priority 2001, dated 2010):
Like-named read-outs stand apart in the source and are kept apart here.

Columns and labels:
[1] = biological target: T1, Mammalian DNA-PK, isolated from Hela cell nuclear extract (Homo sapiens, UniProt P78527); assay: DNA-PK inhibition assay (33P-ATP, filter binding); type: biochemical
T1 construct: Mammalian DNA-PK, isolated from Hela cell nuclear extract; endogenous in cells; host or cells: HeLa cell nuclear extract (purified per Gell and Jackson 1999)
In short: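 DNA-PK from HeLa nuclear extract preincubated with compound 10 min at 30 °C, then started with 50 μM Na-ATP final, ^33P-γATP and 30mer dsDNA (10 ng/μl), run 45 min at 30 °C.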

PI 3-kinase (p110α/p85α) [2] = biological target: T2, PI 3-kinase (p110α/p85α) (UniProt P32871); assay: PI 3-kinase inhibition assay; type: biochemical; conditions: GST-fused p110α/p85α
T2 construct: other: GST-fused p110α/p85α
Text: (§1) In order to assess the inhibitory action of the compounds against PI 3-kinase in vitro, the following assay was used to determine IC50 values.
(§2) Baculoviral recombinant GST-fused PI 3-kinase (p110α/p85α) was purified from Sf9 insect cells using GSH-sepharose affinity chromatography as described (Wymann, M. T et al., (1996) Wortmannin inactivates phosphoinositide 3-kinase by covalent modification of Lys-802, a residue involved in the phosphate transfer reaction. Mol. Cell Biol. 16:1722-1733). PI 3-kinase (1 μl) was diluted in reaction buffer (89 μl of 50 mM Hepes pH 7.5, 150 mM NaCl, 0.1 mM Sodium Orthovanadate, containing 20 μg of phosphatidylinositol) and varying concentrations of inhibitor compound added. […] Reactions were incubated for a further 20 minutes at 37° C., before quenching with the addition of 400 μl of chloroform/methanol (1:1). Reactions were acidified by the addition of 200 μl of 1M HCl, before separation of the organic and aqueous phases by centrifugation at 10,000 g for 30 seconds. The organic phase was transferred to a fresh tube and washed twice with 150 μl of 1M hydrochloric acid/methanol (1:1), discarding the aqueous phase. The washed reaction product was then placed in a white 96-well plate with 100 μl of scintillation fluid and transferred to a TopCount NXT for scintillation counting. Counts per minute, following a one minute counting time, were recorded for each reaction. The inhibition of PI 3-kinase activity by compounds was calculated as described above for the DNA-PK assay.
(§3) The selectivity was determined by the following equation: […]

PI 3-kinase (p110α/p85α) [3] = assay: PI 3-kinase inhibition assay; type: biochemical; conditions: selectivity ratio from the IC50s for PI 3-kinase and DNA-PK
Text: as §1, §2, §3

ATM protein [4] = biological target: T3, ATM protein (Homo sapiens, UniProt Q13315); assay: ATM inhibition assay (immunoprecipitated ATM, GSTp53N66 substrate); type: biochemical
T3 construct: ATM protein was immunoprecipitated from HeLa cell nuclear extract; endogenous in cells; host or cells: HeLa cell nuclear extract (immunoprecipitate)
T3 sequence (Q13315 whole entry): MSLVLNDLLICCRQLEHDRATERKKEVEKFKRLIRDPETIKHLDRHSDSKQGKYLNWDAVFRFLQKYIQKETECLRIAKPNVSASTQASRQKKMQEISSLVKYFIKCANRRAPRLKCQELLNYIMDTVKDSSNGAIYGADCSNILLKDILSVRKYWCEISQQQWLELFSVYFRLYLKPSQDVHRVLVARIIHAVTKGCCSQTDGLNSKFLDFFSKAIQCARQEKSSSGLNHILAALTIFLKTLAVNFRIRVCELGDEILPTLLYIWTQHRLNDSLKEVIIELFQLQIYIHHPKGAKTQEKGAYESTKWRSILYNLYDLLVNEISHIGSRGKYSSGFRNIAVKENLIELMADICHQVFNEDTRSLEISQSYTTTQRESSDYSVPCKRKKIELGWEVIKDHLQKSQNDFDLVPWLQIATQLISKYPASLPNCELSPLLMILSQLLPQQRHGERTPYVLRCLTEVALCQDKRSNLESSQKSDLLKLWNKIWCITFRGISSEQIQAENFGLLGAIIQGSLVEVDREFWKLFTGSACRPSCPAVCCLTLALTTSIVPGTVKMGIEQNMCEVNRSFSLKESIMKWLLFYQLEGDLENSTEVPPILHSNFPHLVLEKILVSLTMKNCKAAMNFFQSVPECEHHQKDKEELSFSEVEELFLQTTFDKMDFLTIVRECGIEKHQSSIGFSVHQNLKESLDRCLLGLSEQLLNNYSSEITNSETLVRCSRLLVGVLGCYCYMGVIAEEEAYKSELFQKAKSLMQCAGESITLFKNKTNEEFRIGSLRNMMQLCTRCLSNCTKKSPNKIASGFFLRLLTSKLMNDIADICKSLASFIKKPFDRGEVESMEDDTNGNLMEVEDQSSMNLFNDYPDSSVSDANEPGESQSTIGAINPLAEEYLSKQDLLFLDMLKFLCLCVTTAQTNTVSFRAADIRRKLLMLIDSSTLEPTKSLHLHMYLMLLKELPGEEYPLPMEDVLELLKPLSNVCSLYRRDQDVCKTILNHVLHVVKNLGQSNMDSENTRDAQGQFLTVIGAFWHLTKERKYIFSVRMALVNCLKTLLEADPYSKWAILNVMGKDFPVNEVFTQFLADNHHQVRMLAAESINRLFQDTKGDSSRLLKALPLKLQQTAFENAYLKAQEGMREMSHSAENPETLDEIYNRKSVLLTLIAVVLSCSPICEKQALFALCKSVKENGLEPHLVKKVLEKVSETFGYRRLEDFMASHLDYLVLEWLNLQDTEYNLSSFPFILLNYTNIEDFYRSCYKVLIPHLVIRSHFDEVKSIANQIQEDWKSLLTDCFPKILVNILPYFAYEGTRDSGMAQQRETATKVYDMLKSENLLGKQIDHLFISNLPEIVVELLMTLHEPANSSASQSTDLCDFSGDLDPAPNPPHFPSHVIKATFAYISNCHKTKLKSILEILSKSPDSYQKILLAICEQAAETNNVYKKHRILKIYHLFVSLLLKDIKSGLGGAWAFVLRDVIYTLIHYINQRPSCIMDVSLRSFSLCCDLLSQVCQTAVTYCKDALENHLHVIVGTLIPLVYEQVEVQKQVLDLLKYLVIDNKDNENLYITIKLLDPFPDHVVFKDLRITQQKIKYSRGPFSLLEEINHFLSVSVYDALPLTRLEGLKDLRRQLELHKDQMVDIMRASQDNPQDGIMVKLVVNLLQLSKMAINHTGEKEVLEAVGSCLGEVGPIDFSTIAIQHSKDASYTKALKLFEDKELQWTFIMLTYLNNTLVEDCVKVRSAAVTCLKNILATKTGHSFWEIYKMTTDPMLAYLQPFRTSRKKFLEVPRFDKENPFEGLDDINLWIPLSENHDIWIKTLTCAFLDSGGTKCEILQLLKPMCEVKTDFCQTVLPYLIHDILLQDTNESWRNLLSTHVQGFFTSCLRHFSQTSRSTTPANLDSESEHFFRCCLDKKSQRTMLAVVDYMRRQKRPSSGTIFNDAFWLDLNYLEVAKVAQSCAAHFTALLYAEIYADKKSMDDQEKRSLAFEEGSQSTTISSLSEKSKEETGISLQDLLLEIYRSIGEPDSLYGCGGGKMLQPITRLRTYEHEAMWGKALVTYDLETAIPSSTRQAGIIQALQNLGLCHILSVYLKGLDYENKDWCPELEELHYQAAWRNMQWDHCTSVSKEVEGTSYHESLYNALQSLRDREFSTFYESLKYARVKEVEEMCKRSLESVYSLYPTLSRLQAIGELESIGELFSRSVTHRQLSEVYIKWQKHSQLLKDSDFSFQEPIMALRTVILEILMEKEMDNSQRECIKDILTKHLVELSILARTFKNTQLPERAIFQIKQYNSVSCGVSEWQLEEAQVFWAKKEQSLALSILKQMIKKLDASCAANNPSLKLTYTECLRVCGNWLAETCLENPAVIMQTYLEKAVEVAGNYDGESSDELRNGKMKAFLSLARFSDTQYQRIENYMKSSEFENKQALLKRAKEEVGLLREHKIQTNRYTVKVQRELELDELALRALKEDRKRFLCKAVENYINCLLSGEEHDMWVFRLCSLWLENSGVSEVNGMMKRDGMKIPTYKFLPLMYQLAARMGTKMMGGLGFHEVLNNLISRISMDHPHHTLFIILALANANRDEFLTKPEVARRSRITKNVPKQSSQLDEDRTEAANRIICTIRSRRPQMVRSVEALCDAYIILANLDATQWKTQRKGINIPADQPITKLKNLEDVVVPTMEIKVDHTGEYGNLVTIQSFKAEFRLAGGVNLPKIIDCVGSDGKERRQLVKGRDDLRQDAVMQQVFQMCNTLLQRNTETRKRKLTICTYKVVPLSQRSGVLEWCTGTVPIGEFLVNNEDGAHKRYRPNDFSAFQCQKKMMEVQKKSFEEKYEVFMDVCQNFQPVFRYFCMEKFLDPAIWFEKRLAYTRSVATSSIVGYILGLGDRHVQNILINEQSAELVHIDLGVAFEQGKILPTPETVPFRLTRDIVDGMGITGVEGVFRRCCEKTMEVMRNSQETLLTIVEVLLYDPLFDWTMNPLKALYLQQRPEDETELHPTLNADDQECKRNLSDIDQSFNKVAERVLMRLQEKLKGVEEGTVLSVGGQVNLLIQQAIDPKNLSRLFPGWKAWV
Experimental: (§4) In order to assess the inhibitory action of the compounds against ATM in vitro, the following assay was used to determine IC50 values.
(§5) ATM protein was immunoprecipitated from HeLa cell nuclear extract using rabbit polyclonal antisera raised to the C-terminal ˜500 amino-acid residues of the human ATM protein. The immunoprecipitation was performed according to the methodology described by Banin, S. et al. (1998) Enhanced phosphorylation of p53 by ATM in response to DNA damage. Science 281:1674-1677. 10 μl of immunoprecipitated ATM in Buffer C (50 mM Hepes, pH 7.4, 6 mM MgCl2, 150 mM NaCl, 0.1 mM sodium orthovanadate, 4 mM MnCl2, 0.1 mM dithiothreitol, 10% glycerol) was added to 32.5 μl of buffer C containing 1 μg of the ATM substrate GSTp53N66 in a V-bottomed 96 well polypropylene plate. The GSTp53N66 substrate is the amino terminal 66 amino acid residues of human wild type p53 fused to glutathione S-transferase. ATM phosphorylates p53 on the residue serine 15 (Banin, S. et al. (1998) Enhanced phosphorylation of p53 by ATM in response to DNA damage. Science 281:1674-1677). Varying concentrations of inhibitor were then added. […] After 10 minutes of incubation at 37° C., the reactions were initiated by the addition of 5 μl of 50 μM Na-ATP. After 1 h with shaking at 37° C., 150 μl of phosphate buffered saline (PBS) was added to the reaction and the plate centrifuged at 1500 rpm for 10 minutes. 5 μl of the reaction was then transferred to a 96 well opaque white plate containing 45 μl of PBS to allow the GSTp53N66 substrate to bind to the plate wells. The plate was covered and incubated at room temperature for 1 h with shaking before discarding the contents. The plate wells were washed twice by the addition of PBS prior to the addition of 3% (w/v) bovine serum albumin (BSA) in PBS. The plate was incubated at room temperature for 1 h with shaking before discarding the contents and washing twice with PBS. To the wells, 50 μl of a 1:10,000 dilution of primary phosphoserine-15 antibody (Cell Signaling Technology, #9284L) in 3% BSA/PBS was added to detect the phosphorylation event on the serine 15 residue of p53 elicited by the ATM kinase. After 1 h of incubation at room temperature with shaking, the wells were washed four times with PBS prior to the addition of an anti-rabbit HRP conjugated secondary antibody (Pierce, 31462) with shaking for 1 h at room temperature. The wells were then washed four times with PBS before the addition of chemiluminescence reagent (NEN Renaissance, NEL105). The plate was then shaken briefly, covered with a transparent plate seal and transferred to a TopCount NXT for chemiluminescent counting. Counts per second, following a one second counting time, were recorded for each reaction. The inhibition of ATM activity by compounds was calculated as described above for the DNA-PK assay.
as §3

ATM protein [5] = assay: as above; type: biochemical, human; conditions: selectivity ratio from the IC50s for ATM and DNA-PK
Experimental: as §4, §5, §3

[6] = IC50 of less than about 1 μM and/or % inhibition of more than about 50 at 1 μM, read-out: DNA-PK inhibition IC50 (particular efficacy)
[7] = concentration at which 50% of the enzyme activity is inhibited, read-out: DNA-PK Inhibition IC50

| IC50 [1, 6] | IC50 [1, 7] | IC50 (PI 3-kinase (p110α/p85α) [2]) | Δ(DNA-PK/PI 3-K) (PI 3-kinase (p110α/p85α) [3]) | IC50 (ATM protein [4]) | Compound | Δ(DNA-PK/ATM) (ATM protein [5]) |
| --- | --- | --- | --- | --- | --- | --- |
| < 1 µM | 0.3 µM | 2.5 µM | 8 | > 100 µM | CC1CN(c2cc(=O)c3ccc4ccccc4c3o2)CCO1 (stereo not drawn) [Compound 317, 2-(2-Methyl-morpholin-4-yl)-benzo[h]chromen-4-one] | >333 |
| < 1 µM | 0.5 µM | 6 µM | 12 | > 100 µM | O=C1c2ccccc2C(=O)N1CCCOc1ccc2c(=O)cc(N3CCOCC3)oc2c1 [Compound 422, N-[3-(2-(Morpholin-4-yl)-4-oxo-4H-chromen-7-yloxy)-propyl]-phthalimide] | >200 |
| < 1 µM | 0.5 µM | 18 µM | 36 | 45 µM | O=c1cc(N2CCOCC2)oc2c3c(ccc12)CCCC3 [Compound 297, 7,8,9,10-tetrahydro-benzo[h]-2-(morpholin-4-yl)-chromen-4-one] | 90 |
